Measured values from article PMC7311950, “Potent Tetrahydroquinolone Eliminates Apicomplexan Parasites” (Frontiers in Cellular and Infection Microbiology, 2020).
“Also recorded” adds a separate entry of the source.

Key:
[1] = target: CYP450 2C9 (Homo sapiens, UniProt P11712); experiment: CYP450 inhibition, 2C9; format: in vitro ADME
[2] = tested on: P. berghei sporozoites; experiment: P. berghei causal prophylaxis in vivo model; parameters: species or system Plasmodium berghei; conditions: oral nanoformulation, single dose 2.5 mg/kg day 0 or 3 doses 0.625 mg/kg days −1, 0, +1; C57BL/6 albino mice
Excerpt: P. berghei sporozoites were obtained from laboratory-reared female Anopheles stephensi mosquitoes which were maintained at 18 degrees C for 17–22 days after feeding on a luciferase expressing P. berghei infected Swiss CD1ICR. Using a dissecting microscope, the salivary glands were extracted from malaria-infected mosquitoes and sporozoites were obtained. Briefly, mosquitoes were separated into head/thorax and abdomen. Thoraxes and heads were triturated with a mortar and pestle and suspended in medium RPMI 1640 containing 1% C57BL/6 mouse serum (Rockland Co, Gilbertsville, PA, USA). […] They were stained with a vital dye containing fluorescein diacetate (50 mg/mL in acetone) and ethidium bromide (20 μg/mL in phosphate buffered saline; Sigma Chemical Co, St. Louis, MO, USA) and counted in a hemocytometer to ensure that inoculated sporozoites were viable following the isolation procedure. […]
Animals were dosed with experimental compounds based on body weight. […] To insure the size of the compounds in the dosing solution were under […], the suspension was homogenized using a homogenizer (PRO Scientific Inc, Monroe, CT, USA) with a 10 mm open-slotted generator running at 20,000–22,000 rpm for 5 min in an ice bath. […] Stability beyond that time was not determined. […]

[3] = tested on: T. gondii RH-YFP tachyzoites; experiment: Synergy studies with RH strain YFP tachyzoites; format: cell-based, Toxoplasma gondii
Protocol: Atovaquone and pyrimethamine were used to test whether they are synergistic with JAG21. Serial dilutions of the combination of JAG21 and either atovaquone or pyrimethamine were used in an in vitro challenge assay as described above. The EC50 of each compound and the combination of two compounds were determined. The effect of the combination of drugs was calculated with the following formula:C= [A]c/[A]a+[B]c/[B]a. If C is lower than 1, the two compounds tested have synergistic effect; if C is >1, the two compounds tested have antagonist effect and if C is 1 they are additive.

[4] = tested on: T. gondii RPS13Δ; experiment: RPS13Δ infection of interferon γ receptor knockout mice; format: in vivo, Toxoplasma gondii; conditions: mice to start 5 (Tafenoquine), 5 (JAG21)
Protocol: In pilot studies, herein, interferon γ receptor knockout mice that were not treated were observed following infection. At 7 and at 14 days following infection, spleen, and liver were removed and immune peroxidase stained. At 14 days a group of mice were treated with anhydrotetracycline and when a subset of these mice died, their spleen and liver were removed and immune peroxidase stained.
As in the pilot studies, this RPS13 Δ parasite also was used to infect interferon γ receptor knockout mice in a treatment study. In this separate study, groups of mice were infected with RPS13 Δ. They were treated with tafenoquine on day−1, or JAG21 for 14 days 2 h after infection, or the two together with tafenoquine on day−1 and JAG21 for the first 14 days, or with diluent only for 14 days, as described above. For the initial 14 days, no tetracycline was administered. After that time tetracycline was administered. Mice were observed each day. At the time they appeared to have substantial illness or at the termination of the experiment they were euthanized, tissues fixed in formalin and stained with hematoxylin and eosin or immunoperoxidase stained and parasite burden was assessed.

[5] = tested on: T. gondii Me49 strain; experiment: Established chronic Me49 infection of Balb/C mice, brain cysts; format: in vivo, Toxoplasma gondii; conditions: treatment begun day 30 after infection, IP daily for 14 days
Protocol: In separate experiments, Balb/C mice were infected IP with 20 × 10^3 T. gondii Me49 strain tachyzoites. In these separate studies of mice with established chronic infection, after 30 days, IP treatment with JAG21 was begun each day for 14 days. JAG21 was dissolved in DMSO and administered IP in a total volume of 0.05 mL. In experiments when tafenoquine was administered alone or with JAG21 in some groups 3 mg/kg tafenoquine was administered once on day−1 from when JAG21 treatment was initiated. Cysts in brain were quantitated on day […], 16 days after discontinuing JAG21. Immunoperoxidase staining was performed. Parasite burden was quantitated in two ways. The first was using a positive pixel count algorithm of Aperio ImageScope software. Positive pixels were normalized to tissue area (mm^2). Briefly, automated quantitation was done by counting positive pixels per square area. The entire brain in one section was scanned for each mouse. The Cyst burden was quantitated as units of positive pixels per mm^2. The average ± S.E.M. numbers of mm^2 per slide quantitated was 30.2±1.6 square mm per mouse for this quantification. Each highpower field of view shown in Figure 5C is ~0.02 mm^2 per field of view. Cysts on each slide for each condition in two biological replicate experiments were also quantitated by 2 separate observers independently and results compared with automated counting, separately.

Sequence of CYP450 2C9 (P11712 whole entry): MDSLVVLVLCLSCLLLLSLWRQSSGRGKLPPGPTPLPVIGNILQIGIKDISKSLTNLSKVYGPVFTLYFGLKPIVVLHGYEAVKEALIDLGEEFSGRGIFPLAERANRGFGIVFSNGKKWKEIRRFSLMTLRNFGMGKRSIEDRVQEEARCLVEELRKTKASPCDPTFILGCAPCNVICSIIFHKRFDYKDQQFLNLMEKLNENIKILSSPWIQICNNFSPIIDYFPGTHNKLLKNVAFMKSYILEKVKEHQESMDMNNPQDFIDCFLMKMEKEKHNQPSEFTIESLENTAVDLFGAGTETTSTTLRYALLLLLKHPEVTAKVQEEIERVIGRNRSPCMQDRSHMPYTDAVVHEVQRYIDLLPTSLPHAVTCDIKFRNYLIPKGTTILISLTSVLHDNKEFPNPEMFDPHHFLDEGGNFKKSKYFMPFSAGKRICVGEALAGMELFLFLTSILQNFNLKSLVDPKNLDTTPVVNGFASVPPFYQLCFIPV

SMILES: Cc1[nH]c2c(c(=O)c1-c1ccc(Oc3ccc(OC(F)(F)F)cc3)cc1)CCCC2 [JAG21, 2-Methyl-3-(4-(4-(Trifluoromethoxy)Phenoxy)Phenyl)-5,6,7,8-Tetrahydroquinolin-4-One]
- IC50 [1]: 4 µM
- survival 30 days post infection [2]: 100%
- effect of combination with pyrimethamine ([3]; data not shown): no antagonism was observed
- effect of combination with atovaquone ([3]; isobologram): synergy
- number of mice left at 42 ([4]; Experiment 1, 6 (Tafenoquine+JAG21)): 2
- number of mice left at 37 ([4]; Experiment 2, 9 (Tafenoquine+JAG21)): 3
- Me49 brain cysts [5]: marked, statistically significant reduction; also recorded: markedly reduce
